One may read the MTD as the largest dose that counted as tolerated. A higher MTD goes with better tolerability.

MTD and IC50 data for one compound are collected here from US6583150B1, “Pharmaceutical composition based on polyaromatic compounds” (Laboratorie L. Lafon, priority 1999, dated 2003).

Series [1] in a line: Determination of the maximum tolerated dose (MTD). The note with it: mouse, in vivo, ip; single intraperitoneal administration, survival over 14 days, B6D2F1/Jico mice. Format: in vivo. The method, then:
The evaluation of the maximum tolerated dose was carried out on 4- to 6-week-old B6D2F1/Jico mice. […] The value of the MTD (expressed in mg/kg) is determined from observing the survival rate of the animals over a period of 14 days after a single administration of the product under consideration. The change in the weight of the animals is also monitored over this period.

A further series relates to T24. Briefly: MTT cytotoxicity test, T24. The note with it: Homo sapiens, T-24, T24 bladder cancer, 72 hours, read-out: concentrations flanking the IC50. The class given is cell-based. On the procedure:
(§1) The influence of the compounds of formulae I and II on neoplastic cells was evaluated using the MTT calorimetric test. The principle of the MTT test is based on the mitochondrial reduction by metabolically active live cells of the yellow-colored product MTT (3-(4,5-dimethylthiazol-2-yl)-2,5-diphenyltetrazolium bromide) to a blue-colored product, formazan. The amount of formazan thus obtained is directly proportional to the amount of live cells present in the culture well(s). This amount of formazan is measured by spectrophotometry.
(§2) The cell lines are maintained in monolayer culture at 37° C. in stoppered culture dishes containing 25 MM HEPES MEM (Minimum Essential Medium) base medium. This medium, which is suitable for growing a range of varied diploid or primary mammalian cells, is then supplemented: […]
(§3) with a an amount of 5% FCS (Fetal Calf Serum) decomplemented at 56° C. for 1 hour, with 0.6 mg/mL of L-glutamine, with 200 IU/mL of penicillin, with […] of streptomycin, with 0.1 mg/mL of gentamicin.
The 12 human cancer cell lines used were obtained from the American Type Culture Collection (ATCC, Rockville, Md., USA). These 12 cell lines are: […]

The subject of series [2] is 12 human tumor lines: U-87MG, U-373MG, SW 1088, T24, J82, HCT-15, LoVo, MCF7, T-47D, A549, A-427 and PC-3. Briefly: MTT cytotoxicity test, panel of the 12 human tumor lines. The class given is cell-based. The conditions noted are these: Homo sapiens, read-out: average IC50. The method, then:
as §1, §2, §3
The 12 human cancer cell lines used were obtained from the American Type Culture Collection (ATCC, Rockville, Md., USA). These 12 cell lines are:
U-373MG (code ATCC: HTB-17) and U-87MG (code ATCC: HTB-14) which are two glioblastomas, SW1088 (code ATCC: HTB-12) which is an astrocytoma, A549 (code ATCC: CCL-185) and A-427 (code ATCC: HTB-53) which are two non-small-cell lung cancers, HCT-15 (code ATCC: CCL-225) and LoVo (code ATCC: CCL-229) which are two colorectal cancers, T-47D (code ATCC: HTB-133) and MCF7 (code ATCC: HTB-22) which are two breast cancers, J82 (code ATCC: HTB-1) and T24 (code ATCC: HTB-4) which are two bladder cancers, PC-3 (code ATCC: CRL-1435) which is a prostate cancer.
Experimentally: 100 μl of a cell suspension containing 200 000 to 50 000 (depending on the cell type used) cells/mL of culture medium are inoculated in flat-bottomed 96-well multi-well plates and are incubated at 37° C. under an atmosphere comprising 5% CO2 and 70% humidity. After incubating for 24 hours, the culture medium is replaced with 100 μl of fresh medium containing either the various test compounds at concentrations ranging from 10^−5 to 10^−10 M or the solvent used to dissolve the test products (control condition). After incubating for 72 hours under the above conditions, the culture medium is replaced with 100 μl of a yellowish solution of MTT dissolved at a rate of 1 mg/mL in RPMI 1640. The microplates are reincubated for 3 hours at 37° C. and then centrifuged for 10 minutes at 400×g. The yellowish solution of MTT is removed and the blue formazan crystals formed at the cellular level are dissolved in 100 μl of DMSO. The microplates are then agitated for 5 minutes. The intensity of the resulting blue coloration, and thus of the conversion of the yellow MTT product into blue formazan by the cells that are still alive at the end of the experiment is quantified by spectrophotometry using a DYNATECH IMMUNOASSAY SYSTEM machine at wavelengths of 570 nm and 630 nm corresponding, respectively, to the maximum absorption wavelengths of formazan and to the background noise. Software built into the spectrophotometer calculates the average optical density values and also the standard deviation (Std. Dev.) and standard error of mean (SEM) values.
The inhibitory activity on the cell growth of the compounds of formula I and of formula II on the different tumor cell lines was compared with that of the natural product meridine (CRL 8348). All of the compounds of formula I and of formula II show significant inhibitory activity on the cell proliferation of the 12 human tumor lines: U-87MG, U-373MG, SW 1088, T24, J82, HCT-15, LoVo, MCF7, T-47D, A549, A-427 and PC-3 with an inhibitory concentration 50 (IC50) which is between 10^−6 M and 10^−10M, depending on the compounds and the tumor lines tested. By way of example, the values of the concentrations flanking the IC50 which are obtained on the various cell lines are given in table II: […]
(In general: Formazan colour is commonly taken as a measure of viable cells.)

Where only a bound is given, the exact number is not on record here.

Consider `O=C1c2ncccc2-c2nc3ccccc3c3ccnc1c23` [CRL 8299, Benzo[b]pyrido[4,3,2-de][1,7]phenanthroline-8-one], for which the MTD at 14 days in series [1] was found to be 80 mg/kg. Moreover, the results for the IC50 (with T24; in series [2]) were less than 0.1 nM and 2.2 nM, respectively.
